Results: patent publication US20120270237A9, “METHODS FOR THE IDENTIFICATION OF KINASE INTERACTING MOLECULES AND FOR THE PURIFICATION OF KINASE PROTEINS” (Cellzone AG, priority 2009, published 2012)

Experiments:
Conditions in all cases: 10 μM free compound
SYK = SYK (Homo sapiens, UniProt P43405); assay: Kinobeads competition binding, HL60 cell lysate; set-up: capturing and identification of kinases from mixed HeLa placenta lysates; endogenous in cells
Protocol: To one aliquot of cell lysate 10 μM of the free compound (FIG. 3, CZC31326) was added and allowed to bind to proteins in the lysate. Then the affinity matrix with the immobilized compound (Example 1) was added to capture proteins that were not interacting with the previously added free compound. Beads were separated from the lysate and bead bound proteins were eluted in SDS sample buffer and subsequently separated by SDS-Polyacrylamide gel electrophoresis (FIG. 4). Suitable gel bands were cut out and subjected to in-gel proteolytic digestion with trypsin. The second lysate aliquot was processed identically, however no free compound was added (DMSO solvent control). Peptides originating from samples 1 and 2 were labeled with iTRAQ reagents (iTRAQ 114 and iTRAQ 117) and the combined samples were analyzed with a nano-flow liquid chromatography system coupled online to a tandem mass spectrometer (LC-MS/MS) experiment followed by iTRAQ reporter ion quantification in the MS/MS spectra (Ross et al., 2004. Mol. Cell. Proteomics 3(12):1154-1169). […] The iTRAQ reagents are a set of multiplexed, amine-specific, stable isotope reagents that can label peptides on amino groups in up to four different biological samples enabling simultaneous identification and quantitation of peptides. […]

CDK5 = CDK5 (Homo sapiens, UniProt Q00535); assay: Kinobeads competition binding, HL60 cell lysate; set-up: endogenous in cells; host or cells: HL60 cells
Chain of CDK5 (Q00535 whole entry): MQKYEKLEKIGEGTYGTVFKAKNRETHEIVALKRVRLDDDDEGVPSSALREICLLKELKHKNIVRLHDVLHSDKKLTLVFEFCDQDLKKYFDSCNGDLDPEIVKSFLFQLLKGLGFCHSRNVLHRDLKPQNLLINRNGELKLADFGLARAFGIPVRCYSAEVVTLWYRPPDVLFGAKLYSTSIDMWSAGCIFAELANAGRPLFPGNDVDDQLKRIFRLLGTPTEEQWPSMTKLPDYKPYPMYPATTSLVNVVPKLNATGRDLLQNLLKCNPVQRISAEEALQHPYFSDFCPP
Protocol: (§1) To one aliquot of cell lysate 10 μM of the free compound (FIG. 3, CZC31326) was added and allowed to bind to proteins in the lysate. Then the affinity matrix with the immobilized compound (Example 1) was added to capture proteins that were not interacting with the previously added free compound. Beads were separated from the lysate and bead bound proteins were eluted in SDS sample buffer and subsequently separated by SDS-Polyacrylamide gel electrophoresis (FIG. 4). Suitable gel bands were cut out and subjected to in-gel proteolytic digestion with trypsin. The second lysate aliquot was processed identically, however no free compound was added (DMSO solvent control). Peptides originating from samples 1 and 2 were labeled with iTRAQ reagents (iTRAQ 114 and iTRAQ 117) and the combined samples were analyzed with a nano-flow liquid chromatography system coupled online to a tandem mass spectrometer (LC-MS/MS) experiment followed by iTRAQ reporter ion quantification in the MS/MS spectra (Ross et al., 2004. Mol. Cell. Proteomics 3(12):1154-1169). Further experimental protocols can be found in WO2006/134056 and a previous publication (Bantscheff et al., 2007. Nature Biotechnology 25, 1035-1044). Sepharose-beads with the immobilized compound (100 μl beads per pull-down experiment) were equilibrated in lysis buffer and incubated with a cell lysate sample containing 50 mg of protein on an end-over-end shaker (Roto Shake Genie, Scientific Industries Inc.) for 2 hours at 4° C. Beads were collected, transferred to Mobicol-columns (MoBiTech 10055) and washed with 10 ml lysis buffer containing 0.4% NP40 detergent, followed by 5 ml lysis buffer containing 0.2% detergent. To elute bound proteins, 60 μl 2×SDS sample buffer was added to the column. The column was incubated for 30 minutes at 50° C. and the eluate was transferred to a siliconized microfuge tube by centrifugation. Proteins were then alkylated with 108 mM iodoacetamid. Proteins were then separated by SDS-Polyacrylamide electrophoresis (SDS-PAGE). The peptide extracts of samples treated with 10 μM of free compound (CZC31326) and the solvent control (0.5% DMSO) were treated with different variants of the isobaric tagging reagent (iTRAQ Reagents Multiplex Kit, part number 4352135, Applied Biosystems, Foster City, Calif., USA). The iTRAQ reagents are a set of multiplexed, amine-specific, stable isotope reagents that can label peptides on amino groups in up to four different biological samples enabling simultaneous identification and quantitation of peptides. The iTRAQ reagents were used according to instructions provided by the manufacturer. The samples were resuspended in 10 μl 50 mM TEAB solution, pH 8.5 and 10 μl ethanol were added. The iTRAQ reagent was dissolved in 120 μl ethanol and 10 μl of reagent solution were added to the sample. The labeling reaction was performed at room temperature for one hour on a horizontal shaker and stopped by adding 5 μl of 100 mM TEAB and 100 mM glycine in water. The two labeled sampled were then combined, dried in a vacuum centrifuge and resuspended in 10 μl of 0.1% formic acid in water. Relative protein quantitation was performed using peak areas of iTRAQ reporter ion signals essentially as described in an earlier publication (Bantscheff et al., 2007. Nature Biotechnology 25, 1035-1044).

AMPKa1 = AMPKa1 (Homo sapiens, UniProt Q13131); assay: Kinobeads competition binding, HL60 cell lysate; set-up: endogenous in cells; host or cells: HL60 cells
Chain of AMPKa1 (Q13131 whole entry): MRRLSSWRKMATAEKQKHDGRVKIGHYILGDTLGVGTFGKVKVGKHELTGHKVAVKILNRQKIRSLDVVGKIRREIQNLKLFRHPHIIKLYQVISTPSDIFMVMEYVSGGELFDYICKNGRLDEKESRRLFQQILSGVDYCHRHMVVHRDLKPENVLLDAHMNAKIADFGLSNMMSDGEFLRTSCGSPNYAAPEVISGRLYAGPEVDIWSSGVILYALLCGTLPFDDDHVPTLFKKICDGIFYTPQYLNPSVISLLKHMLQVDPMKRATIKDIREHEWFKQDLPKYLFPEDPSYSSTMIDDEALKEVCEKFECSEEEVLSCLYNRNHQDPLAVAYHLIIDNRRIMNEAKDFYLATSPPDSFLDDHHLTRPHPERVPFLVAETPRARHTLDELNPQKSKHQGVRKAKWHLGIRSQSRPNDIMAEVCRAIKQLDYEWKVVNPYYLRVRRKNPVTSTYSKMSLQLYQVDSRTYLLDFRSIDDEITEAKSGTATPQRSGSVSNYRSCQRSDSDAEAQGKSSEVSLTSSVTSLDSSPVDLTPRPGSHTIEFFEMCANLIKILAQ
Chain of AMPKa1 (Q9Y478 2-270 partner limits assumed): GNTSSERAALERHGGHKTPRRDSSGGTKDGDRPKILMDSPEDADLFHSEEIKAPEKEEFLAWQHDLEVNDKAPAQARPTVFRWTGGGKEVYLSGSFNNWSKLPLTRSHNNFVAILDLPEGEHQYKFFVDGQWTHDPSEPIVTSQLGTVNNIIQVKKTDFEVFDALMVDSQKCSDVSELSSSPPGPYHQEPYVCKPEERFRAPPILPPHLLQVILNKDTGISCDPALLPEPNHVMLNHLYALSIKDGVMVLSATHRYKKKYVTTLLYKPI
Chain of AMPKa1 (P54619 whole entry partner): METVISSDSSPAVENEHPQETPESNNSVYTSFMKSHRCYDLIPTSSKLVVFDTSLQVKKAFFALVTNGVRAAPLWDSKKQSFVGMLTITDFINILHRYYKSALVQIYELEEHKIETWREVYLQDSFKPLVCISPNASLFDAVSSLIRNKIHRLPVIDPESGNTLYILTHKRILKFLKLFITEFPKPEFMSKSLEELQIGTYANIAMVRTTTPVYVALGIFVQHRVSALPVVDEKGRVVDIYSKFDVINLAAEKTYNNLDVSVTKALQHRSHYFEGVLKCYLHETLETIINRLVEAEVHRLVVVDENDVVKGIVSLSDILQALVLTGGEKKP
Protocol: as §1

RSK3 = RSK3 (Homo sapiens, UniProt Q15349); assay: Kinobeads competition binding, HL60 cell lysate; set-up: endogenous in cells; host or cells: HL60 cells
Chain of RSK3 (Q15349 whole entry): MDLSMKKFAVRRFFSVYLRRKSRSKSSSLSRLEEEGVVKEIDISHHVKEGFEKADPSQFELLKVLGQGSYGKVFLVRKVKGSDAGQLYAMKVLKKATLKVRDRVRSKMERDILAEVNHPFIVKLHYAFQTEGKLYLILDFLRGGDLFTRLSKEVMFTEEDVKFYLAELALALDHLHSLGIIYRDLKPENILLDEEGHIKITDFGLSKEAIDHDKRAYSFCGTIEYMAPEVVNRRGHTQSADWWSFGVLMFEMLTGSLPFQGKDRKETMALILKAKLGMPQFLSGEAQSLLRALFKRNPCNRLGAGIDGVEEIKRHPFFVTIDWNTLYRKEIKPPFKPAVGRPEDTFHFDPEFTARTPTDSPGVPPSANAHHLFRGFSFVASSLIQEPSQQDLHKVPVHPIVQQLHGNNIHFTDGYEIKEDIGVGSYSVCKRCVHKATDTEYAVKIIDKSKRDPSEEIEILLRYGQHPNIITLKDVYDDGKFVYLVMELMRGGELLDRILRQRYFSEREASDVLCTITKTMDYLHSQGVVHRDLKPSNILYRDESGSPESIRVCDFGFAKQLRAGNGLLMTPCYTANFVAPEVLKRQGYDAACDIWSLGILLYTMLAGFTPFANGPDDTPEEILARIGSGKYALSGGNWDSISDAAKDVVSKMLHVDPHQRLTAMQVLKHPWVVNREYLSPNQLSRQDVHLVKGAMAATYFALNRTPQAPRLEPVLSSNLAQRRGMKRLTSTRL
Protocol: as §1

QIK = QIK (Homo sapiens, UniProt Q9H0K1); assay: Kinobeads competition binding, HL60 cell lysate; set-up: endogenous in cells; host or cells: HL60 cells
Chain of QIK (Q9H0K1 whole entry): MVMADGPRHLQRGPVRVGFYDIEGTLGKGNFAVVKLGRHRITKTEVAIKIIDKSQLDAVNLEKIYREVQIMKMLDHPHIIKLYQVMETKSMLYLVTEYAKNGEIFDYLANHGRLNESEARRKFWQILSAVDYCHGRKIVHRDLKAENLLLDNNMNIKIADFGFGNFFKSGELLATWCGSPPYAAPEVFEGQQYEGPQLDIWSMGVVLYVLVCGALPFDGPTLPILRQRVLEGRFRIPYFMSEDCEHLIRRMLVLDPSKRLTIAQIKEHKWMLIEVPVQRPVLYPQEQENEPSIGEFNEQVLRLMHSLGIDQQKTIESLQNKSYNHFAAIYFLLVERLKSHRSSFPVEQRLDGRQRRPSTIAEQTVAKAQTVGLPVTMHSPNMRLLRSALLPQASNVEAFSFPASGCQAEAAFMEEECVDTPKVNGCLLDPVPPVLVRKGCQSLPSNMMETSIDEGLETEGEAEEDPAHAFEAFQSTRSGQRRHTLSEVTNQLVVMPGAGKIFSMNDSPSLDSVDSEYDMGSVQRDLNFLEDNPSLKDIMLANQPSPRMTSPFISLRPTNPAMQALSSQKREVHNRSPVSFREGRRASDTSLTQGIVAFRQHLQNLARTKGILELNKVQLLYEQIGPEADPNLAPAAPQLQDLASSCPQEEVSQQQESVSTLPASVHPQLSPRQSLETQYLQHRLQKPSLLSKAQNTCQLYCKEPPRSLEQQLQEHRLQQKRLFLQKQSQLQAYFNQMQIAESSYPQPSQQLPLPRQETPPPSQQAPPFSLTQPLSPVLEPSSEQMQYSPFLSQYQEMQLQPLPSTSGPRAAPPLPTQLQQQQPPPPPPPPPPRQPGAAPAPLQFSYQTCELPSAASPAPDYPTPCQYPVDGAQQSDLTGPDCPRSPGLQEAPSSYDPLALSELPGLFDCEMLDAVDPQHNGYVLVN
Protocol: as §1

CHK1 = CHK1 (Homo sapiens, UniProt O14757); assay: Kinobeads competition binding, HL60 cell lysate; set-up: endogenous in cells; host or cells: HL60 cells
Chain of CHK1 (O14757 whole entry): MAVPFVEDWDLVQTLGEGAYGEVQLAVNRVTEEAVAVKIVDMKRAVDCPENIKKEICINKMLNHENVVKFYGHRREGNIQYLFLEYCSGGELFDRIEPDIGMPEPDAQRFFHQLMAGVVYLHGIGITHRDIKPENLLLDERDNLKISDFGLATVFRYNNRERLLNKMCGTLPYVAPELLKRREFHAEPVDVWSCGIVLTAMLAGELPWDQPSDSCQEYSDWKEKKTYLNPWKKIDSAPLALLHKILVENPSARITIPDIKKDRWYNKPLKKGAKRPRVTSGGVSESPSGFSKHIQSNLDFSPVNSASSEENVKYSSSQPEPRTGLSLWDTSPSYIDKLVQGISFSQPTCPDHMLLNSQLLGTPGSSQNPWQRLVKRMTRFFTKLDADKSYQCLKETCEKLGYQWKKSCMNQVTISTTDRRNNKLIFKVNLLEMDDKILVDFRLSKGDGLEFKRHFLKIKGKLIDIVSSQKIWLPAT
Protocol: as §1

AurA = target: T1, AurA (Homo sapiens, UniProt O14965); assay: Kinobeads competition binding, HL60 cell lysate; set-up: endogenous in cells; host or cells: HL60 cells
T1 sequence (O14965 1-403): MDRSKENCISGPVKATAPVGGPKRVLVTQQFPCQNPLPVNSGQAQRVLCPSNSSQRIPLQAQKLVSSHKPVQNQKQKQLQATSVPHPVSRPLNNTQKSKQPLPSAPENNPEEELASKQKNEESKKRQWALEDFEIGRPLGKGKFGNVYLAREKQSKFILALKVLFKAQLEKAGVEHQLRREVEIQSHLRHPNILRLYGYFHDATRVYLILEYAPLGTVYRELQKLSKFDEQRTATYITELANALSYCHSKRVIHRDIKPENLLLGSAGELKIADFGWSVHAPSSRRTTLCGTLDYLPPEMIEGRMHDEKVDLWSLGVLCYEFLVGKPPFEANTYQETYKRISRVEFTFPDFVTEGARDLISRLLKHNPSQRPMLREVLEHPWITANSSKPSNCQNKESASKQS
Protocol: as §1

JNK1 = JNK1 (Homo sapiens, UniProt P45983); assay: Kinobeads competition binding, HeLa Placenta lysate mix; set-up: Identified kinases from HeLa Placenta lysate mix with CZC31326; endogenous in cells; host or cells: HeLa cell lysate mixed with placenta tissue lysate
Chain of JNK1 (P45983 whole entry): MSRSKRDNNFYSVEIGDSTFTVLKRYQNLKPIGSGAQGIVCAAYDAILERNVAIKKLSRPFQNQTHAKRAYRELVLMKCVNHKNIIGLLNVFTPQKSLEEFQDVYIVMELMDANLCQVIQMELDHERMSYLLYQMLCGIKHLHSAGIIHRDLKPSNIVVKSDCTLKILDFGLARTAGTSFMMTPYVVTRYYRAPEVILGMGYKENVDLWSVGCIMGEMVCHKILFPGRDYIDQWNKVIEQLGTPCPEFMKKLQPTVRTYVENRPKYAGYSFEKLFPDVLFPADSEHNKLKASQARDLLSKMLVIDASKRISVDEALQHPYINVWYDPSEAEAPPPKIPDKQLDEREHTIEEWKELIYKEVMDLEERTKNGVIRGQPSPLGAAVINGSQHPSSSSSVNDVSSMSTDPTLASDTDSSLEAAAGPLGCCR
Protocol: To one aliquot of cell lysate 10 μM of the free compound (FIG. 3, CZC31326) was added and allowed to bind to proteins in the lysate. Then the affinity matrix with the immobilized compound was added to capture proteins that were not interacting with the previously added free compound. Beads were separated from the lysate and bead bound proteins were eluted in SDS sample buffer and subsequently separated by SDS-Polyacrylamide gel electrophoresis (FIG. 10). Suitable gel bands were cut out and subjected to in-gel proteolytic digestion with trypsin. The second lysate aliquot was processed identically, however no free compound was added (DMSO solvent control). Peptides originating from samples 1 and 2 were labeled with iTRAQ reagents (iTRAQ 114 and iTRAQ 117) and the combined samples were analyzed with a nano-flow liquid chromatography system coupled online to a tandem mass spectrometer (LC-MS/MS) experiment followed by iTRAQ reporter ion quantification in the MS/MS spectra as described in Example 2.

Competition % (SYK): 95.6%
inhibition at 10 µM (CDK5): 95.2%
inhibition at 10 µM (AMPKa1): 97.7%
inhibition at 10 µM (RSK3): 96.9%
inhibition at 10 µM (QIK): 94.2%
Competition % (CHK1): 95.7%
inhibition at 10 µM (AurA): 96.6%
Competition % (JNK1): 85%
Compound: CS(=O)(=O)Nc1ccccc1Nc1nc(Nc2cccc(OCCN)c2)ncc1Cl [CZC31326, N-(2-(2-(3-(2-aminoethoxy)phenylamino)-5-chloropyrimidin-4-ylamino)phenyl)methanesulfonamide]
